Results published in patent US8354441B2, “Oxazoline derivatives” (Hoffmann-La Roche Inc., priority 2009, dated 2013).

How the values were obtained:
[1] = molecular target: T1, mouse TAAR1 (Mus musculus, UniProt Q923Y8); experiment: TAAR1 radioligand binding with [3H]-rac-2-(1,2,3,4-tetrahydro-1-naphthyl)-2-imidazoline, membranes of stably transfected HEK293 cells; details: first value of the cell, read-out: Ki (μM) mouse/rat: mouse
T1 construct: expressed in transfected cells; host or cells: HEK293 (ATCC # CRL-1573), stably transfected with pIRESneo2 expression plasmid
Procedure: (§1) For the construction of expression plasmids the coding sequences of human, rat and mouse TAAR 1 were amplified from genomic DNA essentially as described by Lindemann et al.. The Expand High Fidelity PCR System (Roche Diagnostics) was used with 1.5 mM Mg^2+ and purified PCR products were cloned into pCR2.1-TOPO cloning vector (Invitrogen) following the instructions of the manufacturer. PCR products were subcloned into the pIRESneo2 vector (BD Clontech, Palo Alto, Calif.), and expression vectors were sequence verified before introduction in cell lines.
(§2) HEK293 cells (ATCC # CRL-1573) were cultured essentially as described by Lindemann et al. (2005). For the generation of stably transfected cell lines HEK293 cells were transfected with the pIRESneo2 expression plasmids containing the TAAR coding sequences (described above) with Lipofectamine 2000 (Invitrogen) according to the instructions of the manufacturer, and 24 hrs post transfection the culture medium was supplemented with 1 mg/ml G418 (Sigma, Buchs, Switzerland). After a culture period of about 10 d clones were isolated, expanded and tested for responsiveness to trace amines (all compounds purchased from Sigma) with the cAMP Biotrak Enzyme immunoassay (EIA) System (Amersham) following the non-acetylation EIA procedure provided by the manufacturer.
(§3) Cells at confluence were rinsed with ice-cold phosphate buffered saline without Ca^2+ and Mg^2+ containing 10 mM EDTA and pelleted by centrifugation at 1000 rpm for 5 min at 4° C. The pellet was then washed twice with ice-cold phosphate buffered saline and the cell pellet was frozen immediately by immersion in liquid nitrogen and stored until use at −80° C. The cell pellet was then suspended in 20 ml HEPES-NaOH (20 mM), pH 7.4 containing 10 mM EDTA, and homogenized with a Polytron (PT 3000, Kinematica) at 10,000 rpm for 10 s. The homogenate was centrifuged at 48,000×g for 30 min at 4° C. and the pellet resuspended in 20 ml HEPES-NaOH (20 mM), pH 7.4 containing 0.1 mM EDTA (buffer A), and homogenized with a Polytron at 10,000 rpm for 10 s. The homogenate was then centrifuged at 48,000×g for 30 min at 4° C. and the pellet resuspended in 20 ml buffer A, and homogenized with a Polytron at 10,000 rpm for 10 s. Protein concentration was determined by the method of Pierce (Rockford, Ill.). The homogenate was then centrifuged at 48,000×g for 10 min at 4° C., resuspended in HEPES-NaOH (20 mM), pH 7.0 including MgCl2 (10 mM) and […] homogenized with a Polytron at 10,000 rpm for 10 s.
(§4) The binding assay was performed at 4° C. in a final volume of 1 ml, and with an incubation time of 30 min. The radioligand [^3H]-rac-2-(1,2,3,4-tetrahydro-1-naphthyl)-2-imidazoline was used at a concentration equal to the calculated Kd value of 60 nM to give a bound at around 0.1% of the total added radioligand concentration, and a specific binding which represented approximately 70-80% of the total binding. Non-specific binding was defined as the amount of [^3H]-rac-2-(1,2,3,4-tetrahydro-1-naphthyl)-2-imidazoline bound in the presence of the appropriate unlabelled ligand (10 μM). Competing ligands were tested in a wide range of concentrations (10 pM-30 μM). […] Each experiment was performed in duplicate. All incubations were terminated by rapid filtration through UniFilter-96 plates (Packard Instrument Company) and glass filter GF/C, pre-soaked for at least 2 h in polyethylenimine 0.3%, and using a Filtermate 96 Cell Harvester (Packard Instrument Company). The tubes and filters were then washed 3 times with 1 ml aliquots of cold buffer B. Filters were not dried and soaked in Ultima gold (45 μl/well, Packard Instrument Company) and bound radioactivity was counted by a TopCount Microplate Scintillation Counter (Packard Instrument Company).

[2] = molecular target: T2, rat TAAR1 (Rattus norvegicus, UniProt Q923Y9); experiment: as above; details: second value of the cell, read-out: Ki (μM) mouse/rat: rat
T2 construct: expressed in transfected cells; host or cells: HEK293 (ATCC # CRL-1573), stably transfected with pIRESneo2 expression plasmid
Procedure: as §1, §2, §3, §4

T1 sequence (Q923Y8 whole entry): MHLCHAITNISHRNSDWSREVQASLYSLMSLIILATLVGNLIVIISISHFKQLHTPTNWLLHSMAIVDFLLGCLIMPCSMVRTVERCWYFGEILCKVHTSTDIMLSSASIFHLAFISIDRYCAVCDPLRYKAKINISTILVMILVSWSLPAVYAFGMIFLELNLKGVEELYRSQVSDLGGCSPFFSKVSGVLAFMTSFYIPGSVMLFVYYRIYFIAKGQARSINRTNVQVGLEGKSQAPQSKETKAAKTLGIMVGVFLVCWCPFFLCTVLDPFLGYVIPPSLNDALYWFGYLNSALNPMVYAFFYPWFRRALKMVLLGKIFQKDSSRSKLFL
T2 sequence (Q923Y9 whole entry): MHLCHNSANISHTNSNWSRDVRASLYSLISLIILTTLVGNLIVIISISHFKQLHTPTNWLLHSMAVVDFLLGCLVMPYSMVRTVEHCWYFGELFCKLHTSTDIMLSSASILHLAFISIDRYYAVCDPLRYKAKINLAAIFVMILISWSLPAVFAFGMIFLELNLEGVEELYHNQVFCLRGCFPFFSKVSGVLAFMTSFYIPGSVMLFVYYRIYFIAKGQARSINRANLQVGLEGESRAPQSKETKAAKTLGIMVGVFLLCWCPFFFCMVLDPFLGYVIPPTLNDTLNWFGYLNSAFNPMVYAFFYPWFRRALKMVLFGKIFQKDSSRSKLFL

SMILES	Ki [1] [µM]	Ki [2] [µM]
NC1=N[C@@H](CCCc2ccc(NC(=O)c3ccc(Cl)cc3)cc2)CO1 [Example 8, N-{4-[3-((S)-2-Amino-4,5-dihydro-oxazol-4-yl)-propyl]-phenyl}-4-chloro-benzamide]	0.0034	0.0001
CC1(C(=O)Nc2ccc(CC[C@H]3COC(N)=N3)cc2)CC1 [Example 41, 1-Methyl-cyclopropanecarboxylic acid {4-[2-((S)-2-amino-4,5-dihydro-oxazol-4-yl)-ethyl]-phenyl}-amide]	0.0091	0.0094
CCCc1ccc(C(=O)Nc2ccc(CC[C@H]3COC(N)=N3)cc2)cc1 [Example 61, N-{4-[2-((S)-2-Amino-4,5-dihydro-oxazol-4-yl)-ethyl]-phenyl}-4-propyl-benzamide]	0.0002	0.0007
NC1=N[C@@H](CCc2ccc(NC(=O)CCc3ccccc3Cl)cc2)CO1 [Example 80, N-{4-[2-((S)-2-Amino-4,5-dihydro-oxazol-4-yl)-ethyl]-phenyl}-3-(2-chloro-phenyl)-propionamide]	0.0014	0.0011
COc1ccc(C(=O)Nc2ccc(CC[C@H]3COC(N)=N3)cc2)cc1 [Example 71, N-{4-[2-((S)-2-Amino-4,5-dihydro-oxazol-4-yl)-ethyl]-phenyl}-4-methoxy-benzamide]	0.0009	0.0005
NC1=N[C@@H](CCc2ccc(NC(=O)C3CCCC3)cc2)CO1 [Example 43, Cyclopentanecarboxylic acid {4-[2-((S)-2-amino-4,5-dihydro-oxazol-4-yl)-ethyl]-phenyl}-amide]	0.0029	0.002
NC1=N[C@@H](CCc2ccc(NC(=O)c3ccc(C(F)(F)F)nc3)cc2)CO1 [Example 55, N-{4-[2-((S)-2-Amino-4,5-dihydro-oxazol-4-yl)-ethyl]-phenyl}-6-trifluoromethyl-nicotinamide]	0.0025	0.003
COC(C(=O)Nc1ccc(CC[C@H]2COC(N)=N2)cc1)c1ccc(Cl)cc1 (stereo partly drawn) [Example 78, N-{4-[2-((S)-2-Amino-4,5-dihydro-oxazol-4-yl)-ethyl]-phenyl}-2-(4-chloro-phenyl)-2-methoxy-acetamide]	0.0048	0.0031
CC[C@@H](C[C@H]1COC(N)=N1)c1ccc(NC(=O)Nc2ccc(F)cc2)cc1 [Example 12, 1-{4-[(S)-1-((S)-2-Amino-4,5-dihydro-oxazol-4-ylmethyl)-propyl]-phenyl}-3-(4-fluoro-phenyl)-urea]	0.0012	0.002
NC1=N[C@@H](CCc2ccc(NC(=O)Nc3ccc(C(F)(F)F)cc3)cc2)CO1 [Example 15, 1-{4-[2-((S)-2-Amino-4,5-dihydro-oxazol-4-yl)-ethyl]-phenyl}-3-(4-trifluoromethyl-phenyl)-urea]	0.0001	0.0001
NC1=N[C@@H](CCc2ccc(NC(=O)Nc3ccc(Cl)cn3)cc2)CO1 [Example 35, 1-{4-[2-((S)-2-Amino-4,5-dihydro-oxazol-4-yl)-ethyl]-phenyl}-3-(5-chloro-pyridin-2-yl)-urea]	0.0001	0.0003
NC1=N[C@@H](CCc2ccc(NC(=O)c3ccc(C(F)(F)F)cc3)cc2)CO1 [Example 17, N-{4-[2-((S)-2-Amino-4,5-dihydro-oxazol-4-yl)-ethyl]-phenyl}-4-trifluoromethyl-benzamide]	0.0002	0.0004

Now from value to compound:

Ki [1] [µM]	Ki [2] [µM]	SMILES
0.0003	0.0006	NC1=N[C@@H](CCc2ccc(NC(=O)c3ccc(Cl)cc3Cl)cc2)CO1 [Example 137, (S)-N-(4-(2-(2-Amino-4,5-dihydrooxazol-4-yl)ethyl)phenyl)-2,4-dichlorobenzamide]
0.0037	0.0023	NC1=N[C@@H](CCc2ccc(NC(=O)c3ccn(C(F)F)n3)cc2)CO1 [Example 195, (S)-N-(4-(2-(2-Amino-4,5-dihydrooxazol-4-yl)ethyl)phenyl)-1-(difluoromethyl)-1H-pyrazole-3-carboxamide]
0.001	0.0012	CCOc1cnc(C(=O)Nc2ccc(CC[C@H]3COC(N)=N3)cc2)cn1 [Example 161, (S)-N-(4-(2-(2-Amino-4,5-dihydrooxazol-4-yl)ethyl)phenyl)-5-ethoxypyrazine-2-carboxamide]
0.0011	0.0028	NC1=N[C@@H](CCc2ccc(NC(=O)c3ncoc3C3CC3)cc2)CO1 [Example 214, (S)-N-(4-(2-(2-Amino-4,5-dihydrooxazol-4-yl)ethyl)phenyl)-5-cyclopropyloxazole-4-carboxamide]
0.0016	0.0003	NC1=N[C@@H](CCc2ccc(NC(=O)c3nccc4ccccc34)cc2)CO1 [Example 93, Isoquinoline-1-carboxylic acid {4-[2-((S)-2-amino-4,5-dihydro-oxazol-4-yl)-ethyl]-phenyl}-amide]
0.001	0.0006	NC1=N[C@@H](CCc2ccc(NC(=O)c3ccc(F)cn3)cc2)CO1 [Example 96, (S)-N-(4-(2-(2-amino-4,5-dihydrooxazol-4-yl)ethyl)phenyl)-5-fluoropicolinamide]
0.0051	0.0011	NC1=N[C@@H](CCc2ccc(NC(=O)c3ccc4cccnc4n3)cc2)CO1 [Example 105, [1,8]Naphthyridine-2-carboxylic acid {4-[2-((S)-2-amino-4,5-dihydro-oxazol-4-yl)-ethyl]-phenyl}-amide]
0.0034	0.0014	NC1=N[C@@H](CCc2ccc(NC(=O)c3ccc4cnccc4n3)cc2)CO1 [Example 104, [1,6]Naphthyridine-2-carboxylic acid {4-[2-((S)-2-amino-4,5-dihydro-oxazol-4-yl)-ethyl]-phenyl}-amide]
0.004	0.0018	NC1=N[C@@H](CCc2ccc(NC(=O)c3cncc(F)c3)cc2)CO1 [Example 100, N-{4-[2-((S)-2-Amino-4,5-dihydro-oxazol-4-yl)-ethyl]-phenyl}-5-fluoro-nicotinamide]
0.0009	0.0013	COc1cc(C(=O)Nc2ccc(CC[C@H]3COC(N)=N3)cc2)nc(Cl)n1 [Example 231, 2-Chloro-6-methoxy-pyrimidine-4-carboxylic acid {4-[2-((S)-2-amino-4,5-dihydro-oxazol-4-yl)-ethyl]-phenyl}-amide]
0.0006	0.0006	NC1=N[C@@H](CCc2ccc(NC(=O)c3cc(Cl)cc(Cl)n3)cc2)CO1 [Example 158, (S)-N-(4-(2-(2-Amino-4,5-dihydrooxazol-4-yl)ethyl)phenyl)-4,6-dichloropicolinamide]
0.0012	0.0009	NC1=N[C@@H](CCc2ccc(NC(=O)c3ccc(Br)nc3)cc2)CO1 [Example 106, N-{4-[2-((S)-2-Amino-4,5-dihydro-oxazol-4-yl)-ethyl]-phenyl}-6-bromo-nicotinamide]
0.0006	0.0016	NC1=N[C@@H](CCc2ccc(NC(=O)c3cnc(Cl)c(Cl)c3)cc2)CO1 [Example 109, N-{4-[2-((S)-2-Amino-4,5-dihydro-oxazol-4-yl)-ethyl]-phenyl}-5,6-dichloro-nicotinamide]
0.0013	0.0005	NC1=N[C@@H](CCc2ccc(NC(=O)c3cccc(Br)n3)cc2)CO1 [Example 112, 6-Bromo-pyridine-2-carboxylic acid {4-[2-((S)-2-amino-4,5-dihydro-oxazol-4-yl)-ethyl]-phenyl}-amide]
